Measured values reported in PubChem BioAssay AID1259407 (Chemical Carcinogenesis Research Information System (CCRIS), 2018).
Active and inactive are the calls of the source. No rule for the calls is given here.

System: CCRIS mutagenicity, Ames/micronucleus/aberration tests
Assay: CCRIS mutagenicity studies
[1] = Test System: AMES SALMONELLA TYPHIMURIUM, Strain/Indicator: TA98, Metabolic Activation: NONE, Method: PREINCUBATION
[2] = Test System: AMES SALMONELLA TYPHIMURIUM, Strain/Indicator: TA98, Metabolic Activation: NONE, Method: STANDARD PLATE
[3] = Test System: AMES SALMONELLA TYPHIMURIUM, Strain/Indicator: TA100, Metabolic Activation: NONE, Method: PREINCUBATION
[4] = Test System: AMES SALMONELLA TYPHIMURIUM, Strain/Indicator: TA1535, Metabolic Activation: NONE, Method: STANDARD PLATE
[5] = Test System: AMES SALMONELLA TYPHIMURIUM, Strain/Indicator: TA1537, Metabolic Activation: NONE, Method: STANDARD PLATE
[6] = Test System: E. COLI, Strain/Indicator: WP2 UVRA, Metabolic Activation: NONE, Method: STANDARD PLATE
[7] = Test System: AMES SALMONELLA TYPHIMURIUM, Strain/Indicator: TA100, Metabolic Activation: NONE, Method: STANDARD PLATE

## CCOP(=S)(OCC)Oc1cc(C)nc(C(C)C)n1
Test System: AMES SALMONELLA TYPHIMURIUM, Strain/Indicator: TA97, Metabolic Activation: HAMSTER, LIVER, S-9, AROCLOR 1254 (10 OR 30%), Method: PREINCUBATION
  mutagenic call: inactive; negative
Test System: AMES SALMONELLA TYPHIMURIUM, Strain/Indicator: TA97, Metabolic Activation: NONE, Method: PREINCUBATION
  mutagenic call: inactive; negative
Test System: AMES SALMONELLA TYPHIMURIUM, Strain/Indicator: TA97, Metabolic Activation: RAT, LIVER, S-9, AROCLOR 1254 (10 OR 30%), Method: PREINCUBATION
  mutagenic call: inactive; negative
Test System: AMES SALMONELLA TYPHIMURIUM, Strain/Indicator: TA98, Metabolic Activation: HAMSTER, LIVER, S-9, AROCLOR 1254 (10 OR 30%), Method: PREINCUBATION
  mutagenic call: inactive; negative
[1]
  mutagenic call: inactive; negative
[2]
  mutagenic call: inactive; negative
Test System: AMES SALMONELLA TYPHIMURIUM, Strain/Indicator: TA98, Metabolic Activation: RAT, LIVER, S-9, AROCLOR 1254 (10 OR 30%), Method: PREINCUBATION
  mutagenic call: inactive; negative
Test System: AMES SALMONELLA TYPHIMURIUM, Strain/Indicator: TA98, Metabolic Activation: S-9, NADPH GENERATING SYSTEM, Method: STANDARD PLATE
  mutagenic call: inactive; negative
Test System: AMES SALMONELLA TYPHIMURIUM, Strain/Indicator: TA100, Metabolic Activation: HAMSTER, LIVER, S-9, AROCLOR 1254 (10 OR 30%), Method: PREINCUBATION
  mutagenic call: inactive; negative
[3]
  mutagenic call: inactive; negative
Test System: AMES SALMONELLA TYPHIMURIUM, Strain/Indicator: TA100, Metabolic Activation: RAT, LIVER, S-9, AROCLOR 1254 (10 OR 30%), Method: PREINCUBATION
  mutagenic call: inactive; negative
Test System: AMES SALMONELLA TYPHIMURIUM, Strain/Indicator: TA102, Metabolic Activation: NONE, Method: STANDARD PLATE
  mutagenic call: inactive; negative
Test System: AMES SALMONELLA TYPHIMURIUM, Strain/Indicator: TA102, Metabolic Activation: S-9, NADPH GENERATING SYSTEM, Method: STANDARD PLATE
  mutagenic call: inactive; negative
Test System: AMES SALMONELLA TYPHIMURIUM, Strain/Indicator: TA1535, Metabolic Activation: HAMSTER, LIVER, S-9, AROCLOR 1254 (10 OR 30%), Method: PREINCUBATION
  mutagenic call: inactive; negative
Test System: AMES SALMONELLA TYPHIMURIUM, Strain/Indicator: TA1535, Metabolic Activation: NONE, Method: PREINCUBATION
  mutagenic call: inactive; negative
[4]
  mutagenic call: inactive; negative
Test System: AMES SALMONELLA TYPHIMURIUM, Strain/Indicator: TA1535, Metabolic Activation: RAT, LIVER, S-9, AROCLOR 1254 (10 OR 30%), Method: PREINCUBATION
  mutagenic call: inactive; negative
Test System: AMES SALMONELLA TYPHIMURIUM, Strain/Indicator: TA1535, Metabolic Activation: S-9, NADPH GENERATING SYSTEM, Method: STANDARD PLATE
  mutagenic call: inactive; negative
[5]
  mutagenic call: inactive; negative
Test System: AMES SALMONELLA TYPHIMURIUM, Strain/Indicator: TA1537, Metabolic Activation: S-9, NADPH GENERATING SYSTEM, Method: STANDARD PLATE
  mutagenic call: inactive; negative
Test System: E. COLI, Strain/Indicator: WP2 UVRA, Metabolic Activation: HAMSTER, LIVER, S-9, AROCLOR 1254, Method: STANDARD PLATE
  mutagenic call: inactive; negative
Test System: E. COLI, Strain/Indicator: WP2 UVRA, Metabolic Activation: HAMSTER, LIVER, S-9, Method: STANDARD PLATE
  mutagenic call: inactive; negative
Test System: E. COLI, Strain/Indicator: WP2 UVRA, Metabolic Activation: MOUSE, LIVER, S-9, AROCLOR 1254, Method: STANDARD PLATE
  mutagenic call: inactive; negative
Test System: E. COLI, Strain/Indicator: WP2 UVRA, Metabolic Activation: MOUSE, LIVER, S-9, Method: STANDARD PLATE
  mutagenic call: inactive; negative
[6]
  mutagenic call: inactive; negative
Test System: E. COLI, Strain/Indicator: WP2 UVRA, Metabolic Activation: RAT, LIVER, S-9, AROCLOR 1254, Method: STANDARD PLATE
  mutagenic call: inactive; negative
Test System: E. COLI, Strain/Indicator: WP2 UVRA, Metabolic Activation: RAT, LIVER, S-9, Method: STANDARD PLATE
  mutagenic call: inactive; negative

## O=[N+]([O-])/C=C/c1ccc([N+](=O)[O-])o1
[1]
  mutagenic call: active; positive

## CC[C@H]1O[C@@H]1c1ccccc1
Test System: AMES SALMONELLA TYPHIMURIUM, Strain/Indicator: TA98, Metabolic Activation: NONE, Method: PREINCUBATION (PHOSPHATE-BUFFERED KCL OR SOLUTE-FREE WATER MEDIA)
  mutagenic call: inactive; negative
Test System: AMES SALMONELLA TYPHIMURIUM, Strain/Indicator: TA100, Metabolic Activation: NONE, Method: PREINCUBATION (PHOSPHATE-BUFFERED KCL OR SOLUTE-FREE WATER MEDIA)
  mutagenic call: inactive; negative
Test System: AMES SALMONELLA TYPHIMURIUM, Strain/Indicator: TA104, Metabolic Activation: NONE, Method: PREINCUBATION (PHOSPHATE-BUFFERED KCL OR SOLUTE-FREE WATER MEDIA)
  mutagenic call: inactive; negative

## Nc1ncc2[nH]cnc2n1
[2]
  mutagenic call: inactive; negative
[7]
  mutagenic call: inactive; negative
Test System: CHINESE HAMSTER V-79, Strain/Indicator: V-79 (HGPRT)/6-THIOGUANINE, Metabolic Activation: NONE, Method: STANDARD PLATE
  mutagenic call: active; positive
Test System: E. COLI, Strain/Indicator: WP2, Metabolic Activation: NONE, Method: STANDARD PLATE
  mutagenic call: active; positive
[6]
  mutagenic call: active; positive
Test System: MOUSE LYMPHOMA, Strain/Indicator: L5178Y (TK+/TK-), Metabolic Activation: NONE, Method: SUSPENSION/PLATE
  mutagenic call: active; positive

## CCCCN(CCC(C)=O)N=O
Test System: AMES SALMONELLA TYPHIMURIUM, Strain/Indicator: TA1535, Metabolic Activation: RAT, LIVER, S-9, KC500 OR PHENOBARBITAL, Method: LIQUID SUSPENSION
  mutagenic call: active; positive

## COc1cc(C[C@@H]2NCCc3cc(O)c(O)cc32)cc(OC)c1OC
[2]
  mutagenic call: inactive; negative
Test System: AMES SALMONELLA TYPHIMURIUM, Strain/Indicator: TA98, Metabolic Activation: RAT, LIVER, S-9, AROCLOR 1254, Method: STANDARD PLATE
  mutagenic call: inactive; negative
[7]
  mutagenic call: inactive; negative
Test System: AMES SALMONELLA TYPHIMURIUM, Strain/Indicator: TA100, Metabolic Activation: RAT, LIVER, S-9, AROCLOR 1254, Method: STANDARD PLATE
  mutagenic call: inactive; negative
[4]
  mutagenic call: inactive; negative
Test System: AMES SALMONELLA TYPHIMURIUM, Strain/Indicator: TA1535, Metabolic Activation: RAT, LIVER, S-9, AROCLOR 1254, Method: STANDARD PLATE
  mutagenic call: inactive; negative
[5]
  mutagenic call: inactive; negative
Test System: AMES SALMONELLA TYPHIMURIUM, Strain/Indicator: TA1537, Metabolic Activation: RAT, LIVER, S-9, AROCLOR 1254, Method: STANDARD PLATE
  mutagenic call: inactive; negative

## Fc1ccc2ccc3cccnc3c2c1
Test System: AMES SALMONELLA TYPHIMURIUM, Strain/Indicator: TA100, Metabolic Activation: RAT, LIVER, S-9, PHENOBARBITAL AND 5,6-BENZOFLAVONE, Method: PREINCUBATION
  mutagenic call: active; positive

## NCCS
End Point: IN VIVO MICRONUCLEUS, Test System: BONE MARROW POLYCHROMATIC ERYTHROCYTES, Species: MOUSE, Strain/Sex: SWISS/FEMALE, Route: IP
  mutagenic call: inactive; negative
[3]
  mutagenic call: inactive; negative
Test System: Ames Salmonella typhimurium, Strain/Indicator: TA98, Metabolic Activation: None, Method: Preincubation
  mutagenic call: inactive; negative
Test System: Ames Salmonella typhimurium, Strain/Indicator: TA98, Metabolic Activation: Rat, Liver, S9, Sodium phenobarbital and 5,6-benzoflavone (10%), Method: Preincubation
  mutagenic call: inactive; negative
Test System: Ames Salmonella typhimurium, Strain/Indicator: TA100, Metabolic Activation: None, Method: Preincubation
  mutagenic call: inactive; negative
Test System: Ames Salmonella typhimurium, Strain/Indicator: TA100, Metabolic Activation: Rat, Liver, S9, Sodium phenobarbital and 5,6-benzoflavone (10%), Method: Preincubation
  mutagenic call: inactive; negative
Test System: Ames Salmonella typhimurium, Strain/Indicator: TA1535, Metabolic Activation: None, Method: Preincubation
  mutagenic call: inactive; negative
Test System: Ames Salmonella typhimurium, Strain/Indicator: TA1535, Metabolic Activation: Rat, Liver, S9, Sodium phenobarbital and 5,6-benzoflavone (10%), Method: Preincubation
  mutagenic call: inactive; negative
Test System: Ames Salmonella typhimurium, Strain/Indicator: TA1537, Metabolic Activation: None, Method: Preincubation
  mutagenic call: inactive; negative
Test System: Ames Salmonella typhimurium, Strain/Indicator: TA1537, Metabolic Activation: Rat, Liver, S9, Sodium phenobarbital and 5,6-benzoflavone (10%), Method: Preincubation
  mutagenic call: inactive; negative
Test System: E. coli, Strain/Indicator: WP2uvrA/pKM101, Metabolic Activation: Rat, Liver, S9, Sodium phenobarbital and 5,6-benzoflavone (10%), Method: Preincubation
  mutagenic call: inactive; negative

## CCC1(O)C(=O)OCc2c1cc1n(c2=O)Cc2cc3c(N)cccc3nc2-1 (stereo not given)
Test System: Mouse lymphoma, Strain/Indicator: L5178Y (tk+/tk-), Metabolic Activation: None, Method: Suspension/plate
  mutagenic call: active; positive
Test System: Mouse lymphoma, Strain/Indicator: L5178Y (tk+/tk-), Metabolic Activation: Rat, Liver, S-9, Aroclor 1254, Method: Suspension/plate
  mutagenic call: active; positive
